Laboratory results: ChEMBL document CHEMBL1201862, “PubChem BioAssay data set” (2004)
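How tested: cells in 96-well plates exposed to compound for 48 hours at five concentrations. Abbreviation: GI50, concentration required for 50% inhibition of growth.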 The source made the active and inactive calls. No stated cut-off is given here; in the data, active = GI50 up to about 1.1 µM and inactive = higher.

Assays:
Experiment in all cases: DTP human tumour cell line panel, 48 h
[1] = test system: A549
[2] = test system: NCI-H226
[3] = test system: UACC-257
[4] = test system: SF-539
[5] = test system: SW-620
[6] = test system: HCT-116
[7] = test system: CAKI-1
[8] = test system: U-251
[9] = test system: TK-10
[10] = test system: NCI-H460
[11] = test system: 786-0
[12] = test system: CCRF-CEM
[13] = test system: SR
[14] = test system: OVCAR-3
[15] = test system: M14
[16] = test system: SNB-19
[17] = test system: KM12
[18] = test system: Malme-3M

Measured: GI50

COc1ccc2nccc(C3OC(=O)N4CCC(=O)CC34)c2c1 (stereo not drawn)
inactive: [1] > 100 µM | [2] > 100 µM | [3] > 100 µM | [4] > 100 µM | [5] > 100 µM | [6] > 100 µM | [7] > 100 µM | [8] > 100 µM | [9] > 100 µM | [10] > 100 µM | [11] > 100 µM | [12] > 100 µM | [13] > 100 µM | [14] > 100 µM | [15] > 100 µM | [16] > 100 µM | [17] > 100 µM

CN1CCN2c3ccccc3CC(C#N)(C#N)C2C1 (stereo not drawn)
inactive: [1] > 100 µM | [2] > 100 µM | [3] > 100 µM | [4] > 100 µM | [5] > 100 µM | [6] > 100 µM | [7] > 100 µM | [8] > 100 µM | [9] > 100 µM | [10] > 100 µM | [11] > 100 µM | [12] > 100 µM | [14] > 100 µM | [15] > 100 µM | [16] > 100 µM | [17] > 100 µM | [18] > 100 µM

CCOC(=O)C1S/C(=N\c2ccc(OC)c(OC)c2)N=C1C (stereo not drawn)
inactive: [1] 34.8 µM | [2] 64.1 µM | [3] 41.7 µM | [4] 53.2 µM | [5] 42.7 µM | [6] 32.7 µM | [7] 39.3 µM | [8] 36.2 µM | [9] 75.9 µM | [10] 43.5 µM | [11] 29.2 µM | [12] 22.1 µM | [14] 29.5 µM | [15] 46.7 µM | [16] 53.5 µM | [17] 31.3 µM | [18] 37.7 µM

CC12CC(Sc3ccccc3N1)c1ccccc1O2 (stereo not drawn)
inactive: [1] 18.8 µM | [3] 14.5 µM | [4] 17.5 µM | [5] 17.7 µM | [6] 15.2 µM | [7] 19.2 µM | [8] 13.2 µM | [9] 28.9 µM | [10] 16.6 µM | [11] 17.7 µM | [12] 12.1 µM | [13] 13.6 µM | [14] 16.4 µM | [15] 18.3 µM | [16] 15.2 µM | [17] 15.3 µM | [18] 16.1 µM

O=C1Nc2ccccc2C12CCCC2
inactive: [1] > 100 µM | [3] > 100 µM | [4] 4.24 µM | [5] > 100 µM | [6] > 100 µM | [7] > 100 µM | [8] > 100 µM | [9] > 100 µM | [10] > 100 µM | [11] > 100 µM | [12] > 100 µM | [14] > 100 µM | [15] > 100 µM | [16] > 100 µM | [17] > 100 µM | [18] > 100 µM

O=C(O)COc1ccc2c3c1C(=O)CCC3CO2 (stereo not drawn)
inactive: [1] > 100 µM | [3] > 100 µM | [4] > 100 µM | [5] > 100 µM | [6] > 100 µM | [7] > 100 µM | [8] > 100 µM | [9] > 100 µM | [10] > 100 µM | [11] > 100 µM | [12] > 100 µM | [14] > 100 µM | [15] > 100 µM | [16] > 100 µM | [17] > 100 µM | [18] > 100 µM

Cn1c2c(c3ccccc31)CCN(CCCCN1CCc3c(n(C)c4ccccc34)C1=O)C2
inactive: [1] > 100 µM | [3] > 100 µM | [4] 47.5 µM | [5] > 100 µM | [6] > 100 µM | [7] > 100 µM | [8] > 100 µM | [9] > 100 µM | [10] > 100 µM | [11] > 100 µM | [12] > 100 µM | [14] > 100 µM | [15] > 100 µM | [16] > 100 µM | [18] > 100 µM

O=C(O)/C(=C/c1ccccc1[N+](=O)[O-])c1cccs1
inactive: [1] > 100 µM | [2] > 100 µM | [3] > 100 µM | [4] > 100 µM | [5] > 100 µM | [6] > 100 µM | [7] > 100 µM | [8] > 100 µM | [9] > 100 µM | [10] > 100 µM | [11] > 100 µM | [13] > 100 µM | [14] > 100 µM | [15] > 100 µM | [16] > 100 µM | [17] > 100 µM

C=C1C(=O)O[C@H](c2ccoc2)C[C@@H]1[C@@]1(C)CCCC2(C)C(=O)OCC21 (stereo partly drawn)
inactive: [1] > 100 µM | [2] > 100 µM | [3] > 100 µM | [4] > 100 µM | [5] > 100 µM | [6] > 100 µM | [7] > 100 µM | [8] > 100 µM | [9] > 100 µM | [10] > 100 µM | [11] > 100 µM | [12] > 100 µM | [14] > 100 µM | [15] > 100 µM | [16] > 100 µM | [17] > 100 µM | [18] > 100 µM

CC1=C(C(=O)Nc2ccccc2C)C(/C=C/c2ccccc2)C(C(=O)Nc2ccccc2C)=C(C)N1
inactive: [1] 99.3 µM | [2] > 100 µM | [3] > 100 µM | [4] > 100 µM | [5] > 100 µM | [6] > 100 µM | [7] > 100 µM | [8] 85.1 µM | [9] > 100 µM | [10] > 100 µM | [11] > 100 µM | [12] 82.6 µM | [14] > 100 µM | [15] > 100 µM | [16] > 100 µM | [17] > 100 µM | [18] > 100 µM

O=C(C(=O)c1ccc(Cc2ccc(C(=O)C(=O)c3ccccc3)cc2)cc1)c1ccccc1
inactive: [1] > 100 µM | [2] > 100 µM | [3] > 100 µM | [4] > 100 µM | [5] > 100 µM | [6] > 100 µM | [7] > 100 µM | [8] > 100 µM | [9] > 100 µM | [10] > 100 µM | [11] > 100 µM | [12] 61.5 µM | [14] > 100 µM | [15] > 100 µM | [16] > 100 µM | [17] > 100 µM | [18] > 100 µM

O=C(O)[C@@H](NS(=O)(=O)c1ccc([N+](=O)[O-])cc1)c1ccccc1
inactive: [1] > 100 µM | [2] > 100 µM | [3] > 100 µM | [4] > 100 µM | [5] > 100 µM | [7] > 100 µM | [8] > 100 µM | [9] > 100 µM | [10] > 100 µM | [11] > 100 µM | [12] > 100 µM | [14] > 100 µM | [15] > 100 µM | [16] > 100 µM | [17] > 100 µM | [18] > 100 µM
